From patent US11357857B2, “Excipient compounds for protein processing” (COMERA LIFE SCIENCES, INC., priority 2014, dated 2022)
Several values for one entry are separate records, joined by “and”; a condition that tells them apart may be missing. Equal values may be shown once. Where a name gives a salt, the structure may show the parent alone. Read-outs that look alike come from different tables or passages of the source.

Tests used:
[1] = system: bovine gamma globulin (BGG)
[2] = system: bovine gamma globulin (BGG); test: Viscosity of 280 mg/mL BGG formulations in 50 mM histidine HCl pH 6 with excipient, cone and plate viscometer (Examples 1, 2, 4-6); type: physicochemical
[3] = Viscosity of PEG (Mw ~1,000,000) solution in Tris buffer with excipient (Examples 12-13); type: physicochemical

With `N=C(N)NCCCCN.O=S(=O)(O)O` [Agmatine sulfate] the “Viscosity Reduction” value ([1]; excipient 55 mg/mL) was 23%.
With “dimethylcyclohexylammonium hydroxybenzoate [DMCHA-hydroxybenzoate]” the Viscosity ([2]; excipient 67 mg/mL) was 46 cP, the “Viscosity Reduction” value ([2]; excipient 67 mg/mL) was 42% and the Viscosity ([2]; excipient 92 mg/mL) was 42 cP. For the same molecule, the “Viscosity Reduction” value ([2]; excipient 92 mg/mL) was 47%.
In the case of Trp2Lys3, the Viscosity ([2]; excipient 50 mg/mL) is reported as 60 cP, the “Viscosity Reduction” value ([2]; excipient 50 mg/mL) is reported as 24% and the Viscosity ([2]; excipient 100 mg/mL) is reported as 59 cP. For the same molecule, the “Viscosity Reduction” value ([2]; excipient 100 mg/mL) was 25%.
In the case of `Nc1cccnc1` [3-aminopyridine], the “Viscosity Reduction” value ([1]; excipient 50 mg/mL) is reported as 49%.
In the case of Leu-Glu [Dipeptide LE (Leu-Glu)], the Viscosity ([2]; excipient 50 mg/mL) is reported as 72 cP, the “Viscosity Reduction” value ([2]; excipient 50 mg/mL) is reported as 9% and the Viscosity ([2]; excipient 100 mg/mL) is reported as 87 cP. The “Viscosity Reduction” value ([2]; excipient 100 mg/mL) was −10%.
With Arg-Glu [Dipeptide RE (Arg-Glu)] the Viscosity ([2]; excipient 50 mg/mL) was 50 cP, the “Viscosity Reduction” value ([2]; excipient 50 mg/mL) was 37% and the Viscosity ([2]; excipient 100 mg/mL) was 66 cP. For the same molecule, the “Viscosity Reduction” value ([2]; excipient 100 mg/mL) was 16%.
For `O=C1CCCN1` [2-Pyrrolidinone], the “Viscosity Reduction” value ([1]; excipient 60 mg/mL) was 32%.
With Tyr-Glu [Dipeptide YE (Tyr-Glu)] the Viscosity ([2]; excipient 50 mg/mL) was 55 cP, the “Viscosity Reduction” value ([2]; excipient 50 mg/mL) was 30% and the Viscosity ([2]; excipient 100 mg/mL) was 68 cP. For the same molecule, the “Viscosity Reduction” value ([2]; excipient 100 mg/mL) was 14%.
In the case of Arg-Lys [Dipeptide RK (Arg-Lys)], the Viscosity ([2]; excipient 50 mg/mL) is reported as 53 cP, the “Viscosity Reduction” value ([2]; excipient 50 mg/mL) is reported as 33% and the Viscosity ([2]; excipient 100 mg/mL) is reported as 64 cP. The “Viscosity Reduction” value ([2]; excipient 100 mg/mL) was 19%.
In the case of `O=C([O-])c1ccccc1O.[Na+]` [Sodium salicylate], the Viscosity [2] is reported as 57 cP and 52 cP.
With `c1c[nH]cn1` [Imidazole HCl] the “Viscosity Reduction” value ([1]; excipient 100 mg/mL) was 57%.
With `N=C(N)NCCS(=O)(=O)O` [Product of Example 8, Guanyl taurine] the Viscosity ([2]; excipient 26 mg/mL) was 58 cP, the “Viscosity Reduction” value ([2]; excipient 26 mg/mL) was 27% and the Viscosity ([2]; excipient 58 mg/mL) was 50 cP. The “Viscosity Reduction” value ([2]; excipient 58 mg/mL) was 37%, the Viscosity ([2]; excipient 76 mg/mL) was 49 cP and the “Viscosity Reduction” value ([2]; excipient 76 mg/mL) was 38%. The Viscosity ([2]; excipient 103 mg/mL) was 46 cP, the “Viscosity Reduction” value ([2]; excipient 103 mg/mL) was 42% and the Viscosity ([2]; excipient 129 mg/mL) was 47 cP. For the same molecule, the “Viscosity Reduction” value ([2]; excipient 129 mg/mL) was 41%, the Viscosity ([2]; excipient 159 mg/mL) was 42 cP and the “Viscosity Reduction” value ([2]; excipient 159 mg/mL) was 47%. For the same molecule, the Viscosity ([2]; excipient 163 mg/mL) was 42 cP and the “Viscosity Reduction” value ([2]; excipient 163 mg/mL) was 47%.
In the case of Arg-Pro [Dipeptide RP (Arg-Pro)], the Viscosity ([2]; excipient 50 mg/mL) is reported as 51 cP, the “Viscosity Reduction” value ([2]; excipient 50 mg/mL) is reported as 35% and the Viscosity ([2]; excipient 100 mg/mL) is reported as 53 cP. For the same molecule, the “Viscosity Reduction” value ([2]; excipient 100 mg/mL) was 33%.
In the case of `NCCN` [Ethylene diamine], the Viscosity ([3]; excipient 20 mg/mL) is reported as 83.9 cP, the “Viscosity Reduction” value ([3]; excipient 20 mg/mL) is reported as 15% and the Viscosity ([3]; excipient 40 mg/mL) is reported as 84.7 cP. For the same molecule, the “Viscosity Reduction” value ([3]; excipient 40 mg/mL) was 17%.
For `O=C([O-])C(=O)Cc1ccccc1.[Na+]` [Sodium phenylpyruvate], the “Viscosity Reduction” value ([1]; excipient 55 mg/mL) was 43%.
In the case of `O=C(O)CN(CCN(CC(=O)O)CC(=O)O)CC(=O)O` [EDTA/Na salt, ethylenediaminetetraacetic acid (EDTA)], the Viscosity ([3]; excipient 20 mg/mL) is reported as 77.4 cP, the “Viscosity Reduction” value ([3]; excipient 20 mg/mL) is reported as 26% and the Viscosity ([3]; excipient 40 mg/mL) is reported as 68.1 cP. For the same molecule, the “Viscosity Reduction” value ([3]; excipient 40 mg/mL) was 35%.
In the case of `Nc1ncnc2c1ncn2[C@@H]1O[C@H](COP(=O)(O)O)[C@@H](O)[C@H]1O` [Adenosine monophosphate], the Viscosity ([2]; excipient 26 mg/mL) is reported as 47 cP, the “Viscosity Reduction” value ([2]; excipient 26 mg/mL) is reported as 41% and the Viscosity ([2]; excipient 50 mg/mL) is reported as 66 cP. For the same molecule, the “Viscosity Reduction” value ([2]; excipient 50 mg/mL) was 16%.
In the case of Arg-Arg [Dipeptide RR (Arg-Arg)], the Viscosity ([2]; excipient 50 mg/mL) is reported as 57 cP, the “Viscosity Reduction” value ([2]; excipient 50 mg/mL) is reported as 28% and the Viscosity ([2]; excipient 100 mg/mL) is reported as 62 cP. The “Viscosity Reduction” value ([2]; excipient 100 mg/mL) was 22%.
With `Cn1cncc1C[C@H](NC(=O)CCN)C(=O)O.O=[N+]([O-])O` [L-Anserine nitrate] the “Viscosity Reduction” value ([1]; excipient 50 mg/mL) was 21%.
With `O=C(O)[C@H](O)[C@@H](O)[C@H](O)[C@H](O)CO` [D-Gluconic acid/K salt, D-Gluconic acid] the Viscosity ([3]; excipient 20 mg/mL) was 88.4 cP, the “Viscosity Reduction” value ([3]; excipient 20 mg/mL) was 16% and the Viscosity ([3]; excipient 40 mg/mL) was 80.32 cP. For the same molecule, the “Viscosity Reduction” value ([3]; excipient 40 mg/mL) was 23%.
With `CN(C)CCCN` [DMAPA-HCl, dimethylaminopropylamine] the Viscosity ([2]; excipient 40 mg/mL) was 54 cP, the “Viscosity Reduction” value ([2]; excipient 40 mg/mL) was 32% and the Viscosity ([2]; excipient 87 mg/mL) was 57 cP. The “Viscosity Reduction” value ([2]; excipient 87 mg/mL) was 28%.
For `NC(=O)c1ccncc1` [Isonicotinamide], the “Viscosity Reduction” value ([1]; excipient 50 mg/mL) was 52%.
